Source: patent US9296728B2, “Therapeutic compounds” (Regents of the University of Minnesota, priority 2012, dated 2016)

Assays:
MCT1 = MCT1 (Rattus norvegicus (Rat), UniProt P53987); experiment: Test A. MCT1 inhibition via lactate uptake in rat brain endothelial (RBE4) cells; format: cell-based; conditions: 14C-lactate uptake
Experimental: Test A. MCT1 Inhibition Via Lactate Uptake Rat Brain Endothelial Cells
The entire lactate uptake studies for the inhibition of MCT1 were carried out on RBE4 (Rat Brain Endothelial 4) cells. The expression of MCT1 on these cells was confirmed by Western Blotting. The cells were plated approximately 20-24 hours before the experiment, the number of cells being approximately 10^5 cells per well. The test compounds were dissolved in DMSO and diluted 1000 times using a solution of HEPES buffer (pH 7.43) which consists of 3 μM ^14C-Lactate and 2 μM L-Lactate. The cells were washed twice with 500 μL of HEPES buffer and the cells were allowed to equilibrate for 15 minutes at 37° C. The HEPES buffer was removed and 250 μL of the test sample was added in triplicates. This was repeated for all the compounds, including the controls (CHC and DMSO). After 15 minutes, the compounds were removed from the well and 500 μL of ice-cold stop buffer (0.1 mM CHC solution in HEPES buffer) was added. The plate was kept on ice. Now, the HEPES buffer in one triplicate was removed and DMSO solution was added and immediately removed and ice-cold stop buffer was added. This was considered as “Zero”. One triplicate was left blank, which was used for protein assay after lysing the cells. The cells were washed twice with ice-cold HEPES buffer and then 250 μL of 0.1M NaOH in 5% Triton-X solution was added and the plate is kept on a shaker for 40 minutes to lyse the cells. 150 μL of the lysed cells was added into 4 mL of the scintillation fluid in a scintillation vial and scintillation count was obtained in disintegrations per minute (dpm). The percent inhibition values were calculated by taking DMSO as minimum. Concentration study (usually 9-12 dilutions) was done to determine the IC50 of each compound.

[1] = Toxicity study in BALB/c nude mice containing WiDr colorectal adenocarcinoma xenograft (body weight); format: in vivo; conditions: BALB/c nude mice with WiDr xenograft, 8 mg/kg i.p. twice daily
Experimental: Female BALB/c nude mice weighing ˜20 g were taken and 5.0 10^6 WiDr cancer cells were implanted into their right flanks with a 1:1 mixture of 0.1 mL PBS and matrigel. The tumor was allowed to grow to a size of ˜150 cubic millimeters (14 days). The mice were randomly chosen by chance and assigned into 5 groups (6 mice per group), one group being the control group to which tumor was allowed to grow without any drug administration (food only). The drugs were administered twice daily by P.O. or I.P. Group 1 mice were administered orally with 50 mg/kg of Compound 20. Groups 2, 3 and 4 mice were treated via IP with 10 mg/kg Compound 20, 8 mg/kg of Compound 14 and 238 mg/kg CHC respectively. Body weight changes were recorded every two days for 3 weeks.

[2] = Toxicity study in healthy ICR mice (body weight, WBC, RBC); format: in vivo; conditions: for RBC ± SEM / WBC ± SEM: end of day 22
Experimental: 60 ICR mice weighing ˜27 grams were randomly assigned into 5 groups (12 animals, 6 male and 6 female per group), one group being the control group without any drug administration (food only). The drugs were administered twice daily by P.O. or I.P. Group 1 and 3 were administered orally with 50 mg/Kg of Compound 20 and 18 mg/Kg of Compound 14 respectively. Group 2 and 4 mice were injected intraperitoneally with 6.67 mg/Kg of Compound 20 and 5.3 mg/Kg of Compound 14 (dissolved in water) respectively. The body weights of mice were recorded daily for 22 days. At the end of the 22nd day, 3 mice were randomly selected from each group and their blood samples were collected for detailed analysis of white blood cell (WBC) and red blood cell (RBC) counts. The mice were then euthanized with CO2.

MCT1, sequence (P53987 whole entry): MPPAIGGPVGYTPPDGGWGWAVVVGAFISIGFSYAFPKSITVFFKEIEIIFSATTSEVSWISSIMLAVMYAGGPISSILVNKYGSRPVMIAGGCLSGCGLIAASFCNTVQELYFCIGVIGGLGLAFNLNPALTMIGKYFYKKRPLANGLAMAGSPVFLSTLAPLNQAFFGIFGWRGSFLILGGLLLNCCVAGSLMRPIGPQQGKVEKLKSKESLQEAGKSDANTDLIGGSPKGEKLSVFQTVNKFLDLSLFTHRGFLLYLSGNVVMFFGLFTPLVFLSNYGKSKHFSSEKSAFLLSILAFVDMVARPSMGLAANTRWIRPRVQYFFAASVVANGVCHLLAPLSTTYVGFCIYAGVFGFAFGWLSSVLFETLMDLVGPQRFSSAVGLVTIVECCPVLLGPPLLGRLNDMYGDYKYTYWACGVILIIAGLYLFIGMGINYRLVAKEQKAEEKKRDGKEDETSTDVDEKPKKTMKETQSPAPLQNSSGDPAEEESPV
MCT1, sequence (P26453 141-388 partner): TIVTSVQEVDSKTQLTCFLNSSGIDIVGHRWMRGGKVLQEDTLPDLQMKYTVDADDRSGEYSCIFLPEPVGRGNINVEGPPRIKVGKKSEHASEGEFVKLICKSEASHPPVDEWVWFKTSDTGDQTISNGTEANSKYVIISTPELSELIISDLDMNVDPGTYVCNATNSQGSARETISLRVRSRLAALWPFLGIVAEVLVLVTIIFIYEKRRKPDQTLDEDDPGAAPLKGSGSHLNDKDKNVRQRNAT

Row | Structure (SMILES) | IC50 (MCT1) [µM] | further results
1 | COc1cc(N2CCCC2)ccc1/C=C(\C#N)C(=O)O [Compound 21] | 0.059 | 
2 | N#C/C(=C\c1ccc(N2CCCCC2)cc1)C(=O)O [Compound 12] | 0.11 | 
3 | CCCN(CCC)c1ccc2cc(C(=O)O)c(=O)oc2c1 [Compound 22] | 0.299 | 
4 | CCCCN(CCCC)c1ccc(/C=C(\C#N)C(=O)O)cc1 [Compound 4] | 0.026 | 
5 | CCCCCCN(CCCCCC)c1ccc(/C=C(\C#N)C(=O)O)cc1 [Compound 6] | 0.95 | 
6 | C=CCN(CC=C)c1ccc2cc(C(=O)O)c(=O)oc2c1 [Compound 23] | 0.25 | 
7 | O=C(O)c1cc2ccc(N(Cc3ccccc3)Cc3ccccc3)cc2oc1=O [Compound 25] | 0.048 | 
8 | CC(C)CN(CC(C)C)c1ccc(/C=C(\C#N)C(=O)O)cc1 [Compound 9] | 0.066 | 
9 | CCCCN(CCCC)c1ccc(/C=C(\C#N)C(=O)O)c(OC)c1 [Compound 14] | 0.0076 | Weight in grams (Day 0) ([1]; Day 0): 22.08 grams; Weight in grams (Day 22) ([1]; Day 22): 23.50 grams; Weight in grams (Day 0) ([2]; 5.3 mg/kg i.p. twice daily): 27.05 grams; Weight in grams (Day 22) ([2]; 5.3 mg/kg i.p. twice daily): 32.53 grams; RBC ± SEM ([2]; 5.3 mg/kg i.p. twice daily): 1.58 ± 0.05 10^13/L; WBC ± SEM ([2]; 5.3 mg/kg i.p. twice daily): 5.80 ± 0.72 10^10/L; Weight in grams (Day 0) ([2]; 18 mg/kg p.o. twice daily): 27.04 grams; Weight in grams (Day 22) ([2]; 18 mg/kg p.o. twice daily): 32.60 grams; RBC ± SEM ([2]; 18 mg/kg p.o. twice daily): 1.58 ± 0.02 10^13/L; WBC ± SEM ([2]; 18 mg/kg p.o. twice daily): 4.57 ± 0.49 10^10/L
10 | O=C(O)c1cc2ccc(N(Cc3ccc4c(c3)OCO4)Cc3ccc4c(c3)OCO4)cc2oc1=O [Compound 29] | 0.11 | 
11 | N#C/C(=C\c1ccc(N(Cc2ccccc2)Cc2ccccc2)cc1)C(=O)O [Compound 10] | 0.043 | 
12 | C=CCN(CC=C)c1ccc(/C=C(\C#N)C(=O)O)cc1 [Compound 7] | 0.088 | 
13 | CCCN(CCC)c1ccc(/C=C(\C#N)C(=O)O)c(OC)c1 [Compound 13] | 0.0095 | 
14 | CCCCCN(CCCCC)c1ccc(/C=C(\C#N)C(=O)O)c(OC)c1 [Compound 15] | 0.023 | 
15 | C#CCN(CC#C)c1ccc(/C=C(\C#N)C(=O)O)c(OC)c1 [Compound 17] | 0.091 | 
16 | N#C/C(=C\c1ccc(N2CCCC2)cc1)C(=O)O [Compound 11] | 0.064 | 

Second part, led by results:

Row | IC50 (MCT1) [µM] | Structure (SMILES) | further results
17 | 0.22 | O=C(O)c1cc2ccc(N3CCCC3)cc2oc1=O [Compound 26] | 
18 | 0.2 | O=C(O)c1cc2ccc(N(Cc3ccc(F)cc3)Cc3ccc(F)cc3)cc2oc1=O [Compound 27] | 
19 | 0.15 | C#CCN(CC#C)c1ccc2cc(C(=O)O)c(=O)oc2c1 [Compound 24] | 
20 | 0.025 | C=CCN(CC=C)c1ccc(/C=C(\C#N)C(=O)O)c(OC)c1 [Compound 16] | 
21 | 0.015 | COc1cc(N(CC(C)C)CC(C)C)ccc1/C=C(\C#N)C(=O)O [Compound 18] | 
22 | 0.92 | O=C(O)c1cc2ccc(N(Cc3ccc(Cl)cc3)Cc3ccc(Cl)cc3)cc2oc1=O [Compound 28] | 
23 | 0.34 | C#CCN(CC#C)c1ccc(/C=C(\C#N)C(=O)O)cc1 [Compound 8] | 
24 | 0.019 | COc1cc(N(Cc2ccccc2)Cc2ccccc2)ccc1/C=C(\C#N)C(=O)O [Compound 19] | 
25 | 0.12 | CCCCCN(CCCCC)c1ccc(/C=C(\C#N)C(=O)O)cc1 [Compound 5] | 
